This note sets out measurements from patent publication US9718785B2, “1,3-Disubstituted cyclopentane derivatives” (MERCK PATENT GMBH, priority 2013, dated 2017).

For the first test, the target named is T1, human recombinant full-length fatty acid synthase (FASN) (Homo sapiens, UniProt P49327).
T1 construct: 40 nM human recombinant full-length fatty acid synthase (produced in-house in SF9 cells); made in house; host or cells: SF9 insect cells
T1 sequence (P49327 whole entry): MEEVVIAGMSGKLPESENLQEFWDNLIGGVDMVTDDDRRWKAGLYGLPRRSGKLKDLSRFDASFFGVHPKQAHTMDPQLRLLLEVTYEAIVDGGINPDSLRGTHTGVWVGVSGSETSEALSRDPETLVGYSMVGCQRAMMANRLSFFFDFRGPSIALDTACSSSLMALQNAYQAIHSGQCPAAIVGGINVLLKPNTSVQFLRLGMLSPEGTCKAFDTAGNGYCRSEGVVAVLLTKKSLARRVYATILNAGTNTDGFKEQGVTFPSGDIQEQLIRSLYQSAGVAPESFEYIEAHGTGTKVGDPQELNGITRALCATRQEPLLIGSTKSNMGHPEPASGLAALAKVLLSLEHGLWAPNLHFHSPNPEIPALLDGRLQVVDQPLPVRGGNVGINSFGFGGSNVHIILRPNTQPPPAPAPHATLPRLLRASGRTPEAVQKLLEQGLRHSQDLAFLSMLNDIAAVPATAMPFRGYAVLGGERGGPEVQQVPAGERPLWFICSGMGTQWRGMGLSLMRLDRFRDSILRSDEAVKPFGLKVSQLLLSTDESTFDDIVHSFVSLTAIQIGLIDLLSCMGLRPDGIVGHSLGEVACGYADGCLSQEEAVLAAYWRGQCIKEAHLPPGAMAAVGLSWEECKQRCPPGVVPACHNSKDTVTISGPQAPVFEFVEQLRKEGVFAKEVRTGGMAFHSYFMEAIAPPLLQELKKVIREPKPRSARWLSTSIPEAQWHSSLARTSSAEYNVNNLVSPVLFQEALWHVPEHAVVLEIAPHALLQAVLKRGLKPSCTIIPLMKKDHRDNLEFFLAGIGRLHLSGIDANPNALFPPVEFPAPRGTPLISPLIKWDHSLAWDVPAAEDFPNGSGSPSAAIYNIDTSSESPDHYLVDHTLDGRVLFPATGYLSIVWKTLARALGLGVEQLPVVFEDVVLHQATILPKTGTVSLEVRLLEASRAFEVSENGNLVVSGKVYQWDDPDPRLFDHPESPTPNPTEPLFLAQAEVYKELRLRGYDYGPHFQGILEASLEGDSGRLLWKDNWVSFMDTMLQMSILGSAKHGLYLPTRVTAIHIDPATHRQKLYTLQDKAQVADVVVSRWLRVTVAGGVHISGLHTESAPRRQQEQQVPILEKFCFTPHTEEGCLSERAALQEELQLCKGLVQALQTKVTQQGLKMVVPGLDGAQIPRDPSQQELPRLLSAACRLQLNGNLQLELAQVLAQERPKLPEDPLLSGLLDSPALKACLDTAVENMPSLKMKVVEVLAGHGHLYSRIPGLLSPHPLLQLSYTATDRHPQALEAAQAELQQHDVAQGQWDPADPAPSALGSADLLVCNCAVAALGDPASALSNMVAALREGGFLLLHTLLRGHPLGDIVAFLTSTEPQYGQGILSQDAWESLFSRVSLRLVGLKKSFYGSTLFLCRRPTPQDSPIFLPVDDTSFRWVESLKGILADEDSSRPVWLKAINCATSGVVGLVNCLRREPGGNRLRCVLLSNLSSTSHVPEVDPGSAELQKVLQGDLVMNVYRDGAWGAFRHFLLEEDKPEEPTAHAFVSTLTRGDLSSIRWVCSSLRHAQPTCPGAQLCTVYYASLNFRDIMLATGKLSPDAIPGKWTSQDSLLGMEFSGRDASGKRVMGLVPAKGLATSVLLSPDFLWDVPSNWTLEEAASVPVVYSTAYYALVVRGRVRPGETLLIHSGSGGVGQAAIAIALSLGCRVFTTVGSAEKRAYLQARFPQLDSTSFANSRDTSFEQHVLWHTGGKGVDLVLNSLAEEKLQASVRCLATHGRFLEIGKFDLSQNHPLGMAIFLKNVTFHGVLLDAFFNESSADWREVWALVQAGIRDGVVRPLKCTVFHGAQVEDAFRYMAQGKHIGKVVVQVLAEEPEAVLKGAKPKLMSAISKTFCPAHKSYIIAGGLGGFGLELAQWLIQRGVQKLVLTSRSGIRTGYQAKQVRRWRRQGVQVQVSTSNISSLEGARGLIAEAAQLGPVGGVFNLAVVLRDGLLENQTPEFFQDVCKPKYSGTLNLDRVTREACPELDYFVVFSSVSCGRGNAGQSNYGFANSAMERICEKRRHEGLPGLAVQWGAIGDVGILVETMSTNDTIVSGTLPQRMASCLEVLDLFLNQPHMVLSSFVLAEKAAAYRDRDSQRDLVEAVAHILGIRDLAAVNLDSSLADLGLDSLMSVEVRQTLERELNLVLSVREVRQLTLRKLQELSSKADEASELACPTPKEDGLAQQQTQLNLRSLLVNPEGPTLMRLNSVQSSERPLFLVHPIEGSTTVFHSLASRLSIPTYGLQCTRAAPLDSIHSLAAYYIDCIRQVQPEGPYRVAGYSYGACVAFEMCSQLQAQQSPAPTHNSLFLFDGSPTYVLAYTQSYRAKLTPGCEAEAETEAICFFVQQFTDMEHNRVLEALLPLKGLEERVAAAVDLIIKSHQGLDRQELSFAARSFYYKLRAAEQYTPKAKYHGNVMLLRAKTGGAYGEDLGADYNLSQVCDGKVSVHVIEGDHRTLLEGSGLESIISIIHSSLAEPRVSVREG
Description: Biochemical activity testing of human fatty acid synthase FASN (NADPH fluorescence intensity enzyme assay). The note with it: at 3 μM. The source says:
Biochemical Activity Testing of Human Fatty Acid Synthase FASN
Fatty acid synthase FASN is a multifunctional enzyme with seven catalytic activities thereby synthesising long chain fatty acids especially palmitoyl-CoA in the presence of co-factor NADPH starting from the substrates acetyl-CoA and malonyl-CoA. The reductive synthesis is realized by the oxidation of NADPH to NADP. Since NADPH has a high fluorescence intensity quantum yield compared to NADP with excitation at 340 nm and emission at 460 nm, the reaction can be monitored via the decrease in fluorescence intensity. The biochemical FASN activity testing was performed as 384 well two-time-point kinetic fluorescence intensity assay format in Greiner low volume medium binding 384-well black microtiter plates in a total assay volume of 8 μl and was used for high throughput screen. In each well 3 μl 40 nM human recombinant full-length fatty acid synthase (produced in-house in SF9 cells) were dispensed in the following assay buffer: 50 mM potassium phosphate buffer pH 7.0, 0.005% (w/v) BSA, 2 mM Glutathione, 0.02% Tween-20. Then 2 μl of 200 μM NADPH in assay buffer were added, followed by the addition of the test compounds in 10 dilution concentrations starting with 30 μM (final concentration) to get a final DMSO content of 1% (v/v). The mixture was incubated for at least 15 min at room temperature. After the pre-incubation the enzymatic reaction was started by the addition of 2 μl substrate solution (80 μM acetyl-CoA, 240 μM malonyl-CoA). A first fluorescence intensity measurement (time point one) was performed with an Envision multimode reader (Perkin Elmer LAS Germany GmbH) at excitation wavelength 340 nm (lamp mode) and emission wavelength 460 nm. The reaction was incubated for 30 minutes at room temperature. After this the fluorescence intensity was measured again in the Envision using the same parameters as described above (second time point measurement). The data were analysed by subtracting the first time point measurement value from the second time point measurement value (after the enzymatic reaction). The differences of the emission signals were determined. These reflect directly the conversion rate of NADPH. The full value used was the inhibitor-free reaction. A pharmacological zero value was used like GSK837149A (Sigma-Aldrich) in a final concentration of 5-10 μM. The inhibitory values (IC50) were determined using either the program Symyx Assay Explorer® or Condosseo® from GeneData.
With `CC1(NC(=O)[C@H]2CC[C@@H](n3cncc3-c3ccc(-c4cnc5[nH]ccc5c4)cc3)C2)CC1` [Compound A5, (1S,3R)-3-{5-[4-(1H-pyrrolo[2,3-b]pyridin-5-yl)-phenyl]-imidazol-1-yl}-cyclopentanecarboxylic acid (1-methyl-cyclopropyl)-amide], the “Inhibition of FASN (enzyme assay)” value is “Inhibition: −44%”.

Still in this test, the particulars now being: human recombinant FASN, enzyme assay.
Turning to `CCNC(=O)[C@H]1CC[C@@H](n2cncc2-c2ccc(-c3nc4ccccc4o3)cc2)C1` [Compound A1, (1S,3R)-3-[5-(4-benzooxazol-2-yl-phenyl)-imidazol-1-yl]-cyclopentanecarboxylic acid ethylamide], the IC50 was less than 300 nM.
For the compound `CCNC(=O)[C@H]1CC[C@@H](n2cncc2-c2ccc(-c3ccccc3)cc2)C1` [Compound A2, (1S,3R)-3-(5-biphenyl-4-yl-imidazol-1-yl)-cyclopentanecarboxylic acid ethylamide], the IC50 was less than 300 nM.
On the same count and under the same terms, for `CCNC(=O)[C@H]1CC[C@@H](n2cncc2-c2ccc(-c3ccc(Cl)cc3)cc2)C1` [Compound A3, (1S,3R)-3-[5-(4′-Chloro-biphenyl-4-yl)-imidazol-1-yl]-cyclopentanecarboxylic acid ethylamide] the value was less than 300 nM; for `CC1(NC(=O)[C@H]2CC[C@@H](n3cncc3-c3ccc(-c4nc5ccccc5o4)cc3)C2)CC1` [Compound A4, (1S,3R)-3-[5-(4-benzoxazol-2-yl-phenyl)-imidazol-1-yl]-cyclopentanecarboxylic acid (1-methyl-cyclopropyl)-amide], less than 300 nM; for `CC1(NC(=O)[C@H]2CC[C@@H](n3cncc3-c3ccc(-c4ccc5ncsc5c4)cc3)C2)CC1` [Compound A6, (1S,3R)-3-[5-(4-benzothiazol-6-yl-phenyl)-imidazol-1-yl]-cyclopentanecarboxylic acid (1-methyl-cyclopropyl)-amide amide], less than 300 nM.
On the same count and under the same terms, under `CC1(NC(=O)[C@H]2CC[C@@H](n3cncc3-c3ccc(-c4ccc5cc[nH]c5c4)cc3)C2)CC1` [Compound A7, (1S,3R)-3-{5-[4-(1H-indol-6-yl)-phenyl]-imidazol-1-yl}-cyclopentanecarboxylic acid (1-methyl-cyclopropyl)-amide] stands less than 300 nM; under `CC1(NC(=O)[C@H]2CC[C@@H](n3cncc3-c3ccc(-c4cc5cc(F)ccc5[nH]4)cc3)C2)CC1` [Compound A8, (1S,3R)-3-{5-[4-(5-fluoro-1H-indol-2-yl)-phenyl]-imidazol-1-yl}-cyclopentanecarboxylic acid (1-methyl-cyclopropyl)-amide], 300 to 3000 nM; under `CC1(NC(=O)[C@H]2CC[C@@H](n3cncc3-c3ccc(-c4ccc5[nH]nnc5c4)cc3)C2)CC1` [Compound A9, (1S,3R)-3-{5-[4-(1H-benzotriazol-5-yl)-phenyl]-imidazol-1-yl}-cyclopentanecarboxylic acid (1-methyl-cyclopropyl)-amide], less than 300 nM.
Regarding `CC1(NC(=O)[C@H]2CC[C@@H](n3cncc3-c3ccc(-c4ccc5[nH]ccc5c4)cc3)C2)CC1` [Compound A10, (1S,3R)-3-{5-[4-(1H-indol-5-yl)-phenyl]-imidazol-1-yl}-cyclopentanecarboxylic acid (1-methyl-cyclopropyl)-amide], the IC50 is less than 300 nM.
With `CC1(NC(=O)[C@H]2CC[C@@H](n3cncc3-c3ccc(-c4cccc5[nH]ncc45)cc3)C2)CC1` [Compound A11, (1S,3R)-3-{5-[4-(1H-indazol-4-yl)-phenyl]-imidazol-1-yl}-cyclopentanecarboxylic acid (1-methyl-cyclopropyl)-amide], the IC50 was less than 300 nM.
On to `CC1(NC(=O)[C@H]2CC[C@@H](n3cncc3-c3ccc(-c4ccc(C#N)cc4)cc3)C2)CC1` [Compound A12, (1S,3R)-3-[5-(4′-cyano-biphenyl-4-yl)-imidazol-1-yl]-cyclopentanecarboxylic acid (1-methyl-cyclopropyl)-amide], for which the IC50 is 300 to 3000 nM.
Still for that read-out and setting: for `CCNC(=O)[C@H]1CC[C@@H](n2nncc2-c2ccc(-c3nc4ccccc4o3)cc2)C1` [Compound A13, (1S,3R)-3-[5-(4-benzoxazol-2-yl-phenyl)-[1,2,3]triazol-1-yl]-cyclopentanecarboxylic acid ethylamide] the value was less than 300 nM.
On the same count and under the same terms, for `CCNC(=O)[C@H]1CC[C@@H](n2nncc2-c2ccc(-c3ccc(Cl)cc3)cc2)C1` [Compound A14, (1S,3R)-3-[5-(4′-chloro-biphenyl-4-yl)-[1,2,3]triazol-1-yl]-cyclopentanecarboxylic acid ethylamide] the value was less than 300 nM; for `CCNC(=O)[C@H]1CC[C@@H](n2nncc2-c2ccc(-c3ccc(C#N)cc3)cc2)C1` [Compound A15, (1S,3R)-3-[5-(4′-cyano-biphenyl-4-yl)-[1,2,3]triazol-1-yl]-cyclopentanecarboxylic acid ethylamide], less than 300 nM; for `CCNC(=O)[C@H]1CC[C@@H](n2nncc2-c2ccc(-c3ccc4cc[nH]c4c3)cc2)C1` [Compound A16, (1S,3R)-3-{5-[4-(1H-indol-6-yl)-phenyl]-[1,2,3]triazol-1-yl}-cyclopentanecarboxylic acid ethylamide], less than 300 nM.
Still for that read-out and setting: for `CCC(=O)N[C@H]1CC[C@@H](n2cncc2-c2ccc(-c3nc4ccccc4o3)cc2)C1` [Compound A19, N-{(1S,3R)-3-[5-(4-benzoxazol-2-yl-phenyl)-imidazol-1-yl]-cyclopentyl}-propionamide] the value was less than 300 nM; for `CCC(=O)N[C@H]1CC[C@@H](n2cncc2-c2ccc(-c3nc4ccccc4s3)cc2)C1` [Compound A20, N-{(1S,3R)-3-[5-(4-benzothiazol-2-yl-phenyl)-imidazol-1-yl]-cyclopentyl}-propionamide], less than 300 nM.
`CCC(=O)N[C@H]1CC[C@@H](n2cncc2-c2ccc(-c3ccc(Cl)cc3)cc2)C1` [Compound A21, N-{(1S,3R)-3-[5-(4′-chloro-biphenyl-4-yl)-imidazol-1-yl]-cyclopentyl}-propionamide]: the IC50 is less than 300 nM.
On the same count and under the same terms, under `CCC(=O)N[C@H]1CC[C@@H](n2cncc2-c2ccc(-c3cccc4[nH]ncc34)cc2)C1` [Compound A22, N-((1S,3R)-3-{5-[4-(1H-indazol-4-yl)-phenyl]-imidazol-1-yl}-cyclopentyl)-propionamide] stands less than 300 nM.
Still for that read-out and setting: under `CC(=O)N[C@H]1CC[C@@H](n2nncc2-c2ccc(-c3nc4ccccc4o3)cc2)C1` [Compound A24, N-{(1S,3R)-3-[5-(4-benzoxazol-2-yl-phenyl)-[1,2,3]triazol-1-yl]-cyclopentyl}-acetamide] stands less than 300 nM; under `CCC(=O)N[C@H]1CC[C@@H](n2nncc2-c2ccc(-c3ccc(Cl)cc3)cc2)C1` [Compound A25, N-{(1S,3R)-3-[5-(4′-chloro-biphenyl-4-yl)-[1,2,3]triazol-1-yl]-cyclopentyl}-propionamide], less than 300 nM.
The same measure, in the same setting: for `CCC(=O)N[C@H]1CC[C@@H](n2nncc2-c2ccc(-c3cccc4[nH]ncc34)cc2)C1` [Compound A26, N-((1S,3R)-3-{5-[4-(1H-indazol-4-yl)-phenyl]-[1,2,3]triazol-1-yl}-cyclopentyl)-propionamide] the value was less than 300 nM.
As for `CCC(=O)N[C@H]1CC[C@@H](n2nncc2-c2ccc(-c3ccc4[nH]ccc4c3)cc2)C1` [Compound A27, N-((1S,3R)-3-{5-[4-(1H-indol-5-yl)-phenyl]-[1,2,3]triazol-1-yl}-cyclopentyl)-propionamide], the IC50 was less than 300 nM.
On the same count and under the same terms, for `CCC(=O)N[C@H]1CC[C@@H](n2nncc2-c2ccc(-c3nc4ccccc4s3)cc2)C1` [Compound A28, N-{(1S,3R)-3-[5-(4-benzothiazol-2-yl-phenyl)-[1,2,3]triazol-1-yl]-cyclopentyl}-propionamide] the value was less than 300 nM; for `CCNC(=O)[C@H]1CC[C@@H](n2cnnc2-c2ccc(-c3nc4ccccc4o3)cc2)C1` [Compound A29, (1S,3R)-3-[3-(4-benzoxazol-2-yl-phenyl)-[1,2,4]triazol-4-yl]-cyclopentanecarboxylic acid ethylamide], less than 300 nM.
Take `CCNC(=O)[C@H]1CC[C@@H](n2cnnc2-c2ccc(-c3ccc4cc[nH]c4c3)cc2)C1` [Compound A30, (1S,3R)-3-{3-[4-(1H-indol-6-yl)-phenyl]-[1,2,4]triazol-4-yl}-cyclopentanecarboxylic acid ethylamide]: the IC50 was less than 300 nM.
For `CCNC(=O)[C@H]1CC[C@@H](n2cnnc2-c2ccc(-c3ccc(Cl)cc3)cc2)C1` [Compound A31, (1S,3R)-3-[3-(4′-chloro-biphenyl-4-yl)[1,2,4]triazol-4-yl]-cyclopentanecarboxylic acid ethylamide], the IC50 is less than 300 nM.
